Calls of active or inactive are those of the source.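 The calls were made as follows: active = compounds whose fitted half-maximal concentration for changing the GFP signal is at or below a set limit; inactive = the rest.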
assay: TOR pathway RPL19A-GFP modulators, concentration series – cell-based, S. cerevisiae, flow cytometry, MLPCN hits, dose response (AID 2740);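 also: background is signal of the same compound in parental non-GFP s288c yeast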; details: S. cerevisiae RPL19A-GFP strain, flow cytometry fluorescence, 3 h; at 33 µM (top of the series)

Compound | GFP fluorescence, lower = active (kMESF (background-subtracted))
O=C(c1ccc([N+](=O)[O-])o1)N1CCN(c2nc3c(F)cc(F)cc3s2)CC1 | 31.7 (inactive)
O=C(NC(=S)NNC(=O)c1cnccn1)c1ccc(Cl)cc1 | 48.5 (inactive)
Cc1ccc(/C=C2\SC(=S)N(Cc3ccccc3)C2=O)o1 | 39.4 (inactive)
COc1ccc(-c2cc3cc(C(=O)O)ccn3c2C(=O)c2ccccc2)cc1 | 43.5 (inactive)
O=C(O)c1cccc(S(=O)(=O)Nc2ccc(S(=O)(=O)N3CCOCC3)cc2)c1 | 38.7 (inactive)
CC(Oc1ccc2ccccc2c1)C(=O)NNC(=S)NC(=O)c1ccco1 (configuration not stated) | 34.3 (inactive)
COC(=O)CCC(=O)OC1(C)C(=O)C2=COC(c3ccc(OC)cc3)=CC2=C(Br)C1=O (configuration not stated) | 32.8 (inactive)
O=c1c2cc(Cl)ccc2nc(-c2ccc([N+](=O)[O-])cc2)n1O | 14 (inactive)
COc1ccc(C(=O)/C=C2/C(=O)Nc3ccccc32)cc1OC | 43.1 (inactive)
O=[N+]([O-])c1cc(CN2CCN(c3cccc(C(F)(F)F)c3)CC2)c2cccnc2c1O | 22.7 (inactive)
CC(C)[C@]1(c2ccccc2)ON(c2ccccc2C(F)(F)F)C1=O | 36 (inactive)
O=C(/C=C/c1ccc(F)cc1)NC(=S)NNC(=O)c1cnccn1 | 36.8 (inactive)
O=C1N(c2ccccc2C(F)(F)F)O[C@@]1(c1ccccc1)C1CCCCC1 | 37.6 (inactive)
CC(C)C(=O)NC(c1cccs1)c1cc([N+](=O)[O-])c2cccnc2c1O (configuration not stated) | 31.9 (inactive)
O=C(CCc1ccccc1)NNC(=S)NC(=O)c1ccccc1 | 44.5 (inactive)
CC(=O)OC[C@]12CC[C@H]3[C@@](C)(CC[C@H]4C(C)(C)CCC[C@]34C)[C@@H]1C[C@H](C1=CC(=O)O[C@@H]1OC(C)=O)O2 | 18.7 (inactive)
CC1=C(C)/C(=N\OS(=O)(=O)c2ccc(C)cc2)C=CC1=O | 16.9 (inactive)
O=S(=O)(c1ccccc1)c1ccc(C(F)(F)F)cn1 | 45.7 (inactive)
O=C(Nc1nnc(-c2ccc3c(c2)CCCC3)o1)c1ccc(Cl)cc1Cl | 37.2 (inactive)
Cc1ccsc1/C=C1\C(=O)NC(=S)N(C)C1=O | 19.6 (inactive)
COC(=O)CCS(=O)(=O)c1nc(-c2ccccc2)cc(C(F)(F)F)n1 | 37.3 (inactive)

Compound | GFP fluorescence, lower = active (kMESF (background-subtracted))
COc1ccccc1-c1nc2s/c(=C\c3cccs3)c(=O)n2n1 | 36.9 (inactive)
Cc1ccc(N=Nc2ccc(O)c3ncccc23)cc1 | 39.8 (inactive)
COc1ccc(C=C2C(=O)c3ccccc3C2=O)cc1O | 38.1 (inactive)
CCCc1ccc(OCC(=O)NNC(=S)NC(=O)c2ccco2)cc1 | 30.3 (inactive)
Cc1ccccc1OCC(=O)NNC(=S)NC(=O)c1ccco1 | 44.1 (inactive)
C=CCN1C(=O)/C(=C/c2ccc(-c3ccc(F)cc3)o2)SC1=S | 34.7 (inactive)
O=C(Cc1ccc(Cl)cc1)NNC(=S)NC(=O)c1cccs1 | 45.9 (inactive)
Nc1c(C(=O)c2cccs2)sc2nsc(SCCN3CCCCC3)c12 | 38.1 (inactive)
CCN1/C(=C/C=C/c2sc3ccccc3[n+]2CC)Sc2ccccc21 | 31.9 (inactive)
Nc1ccccc1SC(C[N+](=O)[O-])c1ccccc1 (configuration not stated) | 38.1 (inactive)
O=C1C(Cl)=C(Nc2ccccc2O)C(=O)N1c1ccccc1 | 43.6 (inactive)
CC(=O)Oc1ccc(N2C(=O)C3C4C=CC(CO)(O4)C3C2=O)cc1 (configuration not stated) | 38.8 (inactive)
CC(=O)Oc1oc(-c2ccccc2)nc1C=Nc1ccccc1 | 39.7 (inactive)
N=C1S/C(=C\c2ccco2)C(=O)N1c1nccs1 | 47.2 (inactive)
O=c1[nH]c(-c2ccccn2)nc(C(F)(F)F)c1Br | 30.1 (inactive)
N/C(=N\OC(=O)c1ccc(Cl)cc1Cl)c1ccccc1 | 39.4 (inactive)
Cc1ccc(NC(=O)CCc2ccccc2)cc1S(=O)(=O)N1CCOCC1 | 45.9 (inactive)
CCCCCCCCCCCCCCCC[n+]1cccc2ccccc21 | 1.36 (inactive)
Cc1ccc(S(=O)(=O)c2ncccc2[N+](=O)[O-])cc1 | 47.4 (inactive)
COc1cc(/C=C2\C(=O)ON=C2c2ccc(Cl)cc2)ccc1O | 40.8 (inactive)
Cc1cc(O)c(C(=O)/C=C/c2ccc(Cl)cc2)c(=O)o1 | 33 (inactive)

Compound | GFP fluorescence, lower = active (kMESF (background-subtracted))
CCCS(=O)(=O)c1nnnn1-c1cccc(OC)c1 | 31.9 (inactive)
CCN(CC)c1ccc2cc(-c3nc4ccccc4[nH]3)c(=O)oc2c1 | 42.6 (inactive)
O=C1ON=C(c2ccccc2)/C1=C\c1ccco1 | 28.9 (inactive)
CN(O)/C=c1/ccc2c(n1)C(=O)C=CC=2 | 39.2 (inactive)
Cc1ccc(/C=C2\SC(=S)N(CC3CCCO3)C2=O)o1 (configuration not stated) | 42.5 (inactive)
COc1cc(C=C2C(=O)c3ccccc3C2=O)cc(OC)c1OC | 43.2 (inactive)
Cc1cc(C)c(C)c(S(=O)(=O)ON2C(=O)c3ccccc3C2=O)c1C | 49.1 (inactive)
O=C1ON=C(c2ccc(Cl)cc2)/C1=C/c1ccc(O)cc1 | 40.8 (inactive)
O=C(COc1ccccc1)NNC(=S)NC(=O)c1ccc(Cl)cc1Cl | 28 (inactive)
CC(C)[C@]1(c2ccc(Cl)cc2)ON(c2ccccc2C(F)(F)F)C1=O | 40.6 (inactive)
CCOc1ccc(C(C)=O)cc1N1C(=O)C2C3C=CC(O3)C2C1=O (configuration not stated) | 42.4 (inactive)
O=c1c(-c2ccc(Cl)cc2)[n+]([O-])c2ccccc2n1O | 30.9 (inactive)
COc1ccc(N2C(=O)C(Cl)=C(NCc3ccccc3)C2=O)cc1 | 44.3 (inactive)
O=C(O)c1cc[c]([Hg][Cl])cc1 | 15.7 (inactive)
CC(=O)Oc1ccc(/C=c2\sc3ncnn3c2=O)cc1 | 50 (inactive)
CCc1cc(C(=O)Nc2nc(-c3ccccn3)cs2)sc1C | 23.7 (inactive)
O=C(O)c1ccccc1SC1CC(=O)N(c2ccc3c(c2)OCO3)C1=O (configuration not stated) | 43.5 (inactive)
COc1ccc(CCNC2=C(Cl)C(=O)N(CCc3ccccc3)C2=O)cc1OC | 40 (inactive)
O=C(Nc1nnc(-c2ccc(Cl)cc2)o1)c1ccccc1Br | 37 (inactive)
O=C(Oc1c(Cl)cc(Cl)c2cccnc12)c1cccs1 | 36.1 (inactive)
COc1ccc(NC2=C(Cl)C(=O)N(CCc3ccccc3)C2=O)cc1 | 41.6 (inactive)

Compound | GFP fluorescence, lower = active (kMESF (background-subtracted))
O=C(NC(=S)NNC(=O)[C@H]1C[C@@H]1c1ccccc1)c1cccc(F)c1 | 45.1 (inactive)
N/C(Cc1ccc(Cl)cc1Cl)=N\OC(=O)c1ccccc1 | 28.6 (inactive)
Oc1ccc2ccccc2c1/C=N/Nc1nnc(-c2ncc[nH]2)c2ccccc12 | 4.23 (inactive)
CC[C@]1(c2ccccc2OC)ON(c2ccccc2C(F)(F)F)C1=O | 33.7 (inactive)
Cc1cc(/C=C2/SC(=S)N(c3cccc(Cl)c3)C2=O)c(C)n1-c1cccnc1 | 42.7 (inactive)
COc1cccc(N=Nc2ccc(O)c3ncccc23)c1 | 50.7 (inactive)
Oc1cc(-c2ccc(N3CCCCC3)nc2)cc2cccnc12 | 46.1 (inactive)
Cc1ccc(N2C(=O)C(Cl)=C(Nc3c(C)n(C)n(-c4ccccc4)c3=O)C2=O)cc1 | 39 (inactive)
O=c1c2cc(Br)ccc2nc(-c2ccc([N+](=O)[O-])cc2)n1O | 15.6 (inactive)
COC(=O)c1cc(N2C(=O)C3C(C2=O)C2(C)C=CC3(C)O2)ccc1Cl (configuration not stated) | 28.8 (inactive)
COc1ccc2c(c1)c(/C=C/c1cc[n+](C)cc1)cn2C | 40 (inactive)
Cc1ccc(NC(=O)ON=C2CCCC2)cc1 | 39.3 (inactive)
CC(=O)Oc1oc(-c2ccccc2)nc1C=Nc1ccc(N(C)C)cc1 | 41.6 (inactive)
COc1ccc(N2C(=O)C(Cl)=C(Nc3c(C)n(C)n(-c4ccccc4)c3=O)C2=O)cc1 | 39.8 (inactive)
O=C(NC(=S)NNC(=O)c1ccc(Cl)cc1Cl)c1cccnc1 | 18.7 (inactive)
O=C(NNC(=S)NC(=O)C12CC3CC(CC(C3)C1)C2)c1ccncc1 | 46.9 (inactive)
Cc1c(C(=O)Nc2nc(-c3ccccn3)cs2)oc2ccccc12 | 33.3 (inactive)
[O-][n+]1cccc2c(Br)cc(Br)c(O)c21 | 42.9 (inactive)
Cc1cc(C)c2c(c1)/C(=C/C(=O)c1ccc(Br)s1)C(=O)N2 | 46.6 (inactive)

Source: PubChem BioAssay AID2740 (NMMLSC, 2010)
